The results in this text go back to ChEMBL document CHEMBL4190175 (Medchemcomm, 2016).

The target of data set [1] is T1, Transient receptor potential cation channel subfamily A member 1 (Homo sapiens, UniProt O75762). As to the kind of experiment: Antagonist activity at human TRPA1 by electrophysiology assay.
A short description of data set [2]: Antagonist activity at full length opossum TRPA1 at holding potential of 15 mV measured after 1 min by PatchXpress electrophysiology assay. Also noted: species or system Monodelphis domestica.
The nature of data set [3]: Volume of distribution at steady state in rat. The class given is ADME, organism-based. To be noted: in vivo, read-out: Vdss.
The subject of data set [4] is Hepatocyte. As to the kind of experiment: Stability in rat hepatocytes. The class given is ADME, cell-based.
Data set [5] in a line: Stability in dog plasma. It counts as ADME, cell-free, Canis lupus familiaris. As to conditions: read-out: Stability.
For data set [6], the target named is T1, Transient receptor potential cation channel subfamily A member 1. Nature of the data set: Antagonist activity at human TRPA1 oS5 chimera containing (870 to 896 residues) expressed in 293-T-REx cells at holding potential of 15 mV measured after 1 min by PatchXpress electrophysiology assay. The class given is cell-based.
Data set [7] addresses Cytochrome P450 2C9 (Homo sapiens, UniProt P11712). Nature of the data set: Inhibition of CYP2C9 (unknown origin). The class given is ADME.
The nature of data set [8]: Antagonist activity at opossum TRPA1 hS5 chimera containing (867 to 983 residues) expressed in 293-T-REx cells at holding potential of 15 mV measured after 1 min by PatchXpress electrophysiology assay. It counts as cell-based. To be noted: Monodelphis domestica, 293Trex.
A short description of data set [9]: Thermodynamic solubility of the compound. It counts as physicochemical. As to conditions: read-out: Therm_solubility.
Data set [10] has as its target Sodium channel protein type 5 subunit alpha (Homo sapiens, UniProt Q14524). As to the kind of experiment: Inhibition of Nav1.5 (unknown origin).
Data set [11] deals with Transient receptor potential cation channel subfamily A member 1 (Rattus norvegicus, UniProt Q6RI86). Nature of the data set: Antagonist activity at rat TRPA1 by electrophysiology assay.
Chain of Transient receptor potential cation channel subfamily A member 1 (Rattus norvegicus, UniProt Q6RI86) (Q6RI86 whole entry): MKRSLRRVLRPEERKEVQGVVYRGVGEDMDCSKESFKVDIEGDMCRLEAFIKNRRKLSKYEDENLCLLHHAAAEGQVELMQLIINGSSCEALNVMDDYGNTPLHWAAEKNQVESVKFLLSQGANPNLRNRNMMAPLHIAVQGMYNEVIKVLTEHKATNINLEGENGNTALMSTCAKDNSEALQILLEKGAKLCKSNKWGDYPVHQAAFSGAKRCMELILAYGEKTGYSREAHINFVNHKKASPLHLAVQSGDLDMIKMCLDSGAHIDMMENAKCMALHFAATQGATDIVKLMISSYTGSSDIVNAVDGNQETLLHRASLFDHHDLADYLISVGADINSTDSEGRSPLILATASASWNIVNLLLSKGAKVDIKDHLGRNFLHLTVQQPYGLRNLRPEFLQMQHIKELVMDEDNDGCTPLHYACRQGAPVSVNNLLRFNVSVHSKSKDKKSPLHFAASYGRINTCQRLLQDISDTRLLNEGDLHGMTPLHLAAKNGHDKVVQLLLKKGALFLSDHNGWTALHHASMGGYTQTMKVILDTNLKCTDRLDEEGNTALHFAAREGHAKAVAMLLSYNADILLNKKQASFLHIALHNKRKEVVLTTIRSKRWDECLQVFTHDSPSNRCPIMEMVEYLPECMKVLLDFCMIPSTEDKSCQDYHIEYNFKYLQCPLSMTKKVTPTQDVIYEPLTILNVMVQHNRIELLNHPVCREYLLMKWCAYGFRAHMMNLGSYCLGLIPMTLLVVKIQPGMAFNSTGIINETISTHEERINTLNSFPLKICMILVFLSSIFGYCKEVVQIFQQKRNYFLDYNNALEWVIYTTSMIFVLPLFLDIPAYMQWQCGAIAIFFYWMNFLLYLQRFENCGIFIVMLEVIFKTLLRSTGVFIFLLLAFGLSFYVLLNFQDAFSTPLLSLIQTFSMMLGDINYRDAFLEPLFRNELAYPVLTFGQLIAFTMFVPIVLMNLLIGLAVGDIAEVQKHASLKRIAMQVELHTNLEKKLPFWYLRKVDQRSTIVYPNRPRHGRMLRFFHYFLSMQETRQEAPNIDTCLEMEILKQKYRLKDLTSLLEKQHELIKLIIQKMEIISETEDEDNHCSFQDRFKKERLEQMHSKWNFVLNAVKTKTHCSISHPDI
Data set [12] can be described thus: Oral bioavailability in rat. It counts as ADME, organism-based. To be noted: in vivo.
Data set [13] is described as follows: Drug uptake in Sprague-Dawley rat skin dermal layer at 0.68 mg applied topically measured after 24 hrs. It counts as ADME, tissue-based, Dermis. As to conditions: topical or ocular, read-out: Drug uptake.
Data set [14] has as its target T2, Voltage-gated inwardly rectifying potassium channel KCNH2 (Homo sapiens, UniProt Q12809). As to the kind of experiment: Inhibition of human ERG.
The target in data set [15] is T2, Voltage-gated inwardly rectifying potassium channel KCNH2. As to the kind of experiment: Inhibition of dofetilide binding to human ERG.
Data set [16] is described as follows: Inhibition of GABA-A (unknown origin). Also noted: species or system Homo sapiens.

Each structure is given as a SMILES string. Converted amounts (≈) assume the structure as drawn. Where only a bound is given, the exact number is not on record here.

T2 sequence (Q12809 whole entry): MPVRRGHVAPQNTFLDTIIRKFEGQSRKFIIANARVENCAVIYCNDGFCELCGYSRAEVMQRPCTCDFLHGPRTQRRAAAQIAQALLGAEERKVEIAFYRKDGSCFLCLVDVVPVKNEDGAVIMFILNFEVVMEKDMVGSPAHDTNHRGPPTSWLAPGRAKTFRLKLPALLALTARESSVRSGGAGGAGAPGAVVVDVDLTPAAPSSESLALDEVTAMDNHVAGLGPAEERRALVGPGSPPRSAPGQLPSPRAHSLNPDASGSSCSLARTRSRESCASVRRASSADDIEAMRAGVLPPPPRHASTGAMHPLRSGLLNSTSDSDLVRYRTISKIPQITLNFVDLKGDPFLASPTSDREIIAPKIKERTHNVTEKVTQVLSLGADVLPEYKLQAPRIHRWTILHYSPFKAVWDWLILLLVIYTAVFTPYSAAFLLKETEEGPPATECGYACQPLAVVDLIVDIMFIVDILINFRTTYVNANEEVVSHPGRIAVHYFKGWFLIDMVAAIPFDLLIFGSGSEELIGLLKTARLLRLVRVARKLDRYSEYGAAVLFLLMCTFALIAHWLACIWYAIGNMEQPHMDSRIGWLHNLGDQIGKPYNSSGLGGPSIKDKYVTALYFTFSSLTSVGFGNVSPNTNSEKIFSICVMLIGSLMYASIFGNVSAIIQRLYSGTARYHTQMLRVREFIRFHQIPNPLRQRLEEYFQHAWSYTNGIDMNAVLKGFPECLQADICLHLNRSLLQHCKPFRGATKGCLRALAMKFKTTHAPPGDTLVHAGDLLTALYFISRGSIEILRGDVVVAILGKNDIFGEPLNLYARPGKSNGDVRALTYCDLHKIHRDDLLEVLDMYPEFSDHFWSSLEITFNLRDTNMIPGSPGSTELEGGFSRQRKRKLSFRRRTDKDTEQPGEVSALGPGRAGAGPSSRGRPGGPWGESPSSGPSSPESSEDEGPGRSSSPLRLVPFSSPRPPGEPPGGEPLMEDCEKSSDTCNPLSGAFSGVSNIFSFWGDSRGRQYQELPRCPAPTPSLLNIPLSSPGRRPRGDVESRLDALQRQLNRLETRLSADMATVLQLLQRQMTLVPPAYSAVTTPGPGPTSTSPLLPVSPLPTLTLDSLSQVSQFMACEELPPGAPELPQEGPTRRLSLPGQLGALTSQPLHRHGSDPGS
Chain of Sodium channel protein type 5 subunit alpha (Q14524 whole entry): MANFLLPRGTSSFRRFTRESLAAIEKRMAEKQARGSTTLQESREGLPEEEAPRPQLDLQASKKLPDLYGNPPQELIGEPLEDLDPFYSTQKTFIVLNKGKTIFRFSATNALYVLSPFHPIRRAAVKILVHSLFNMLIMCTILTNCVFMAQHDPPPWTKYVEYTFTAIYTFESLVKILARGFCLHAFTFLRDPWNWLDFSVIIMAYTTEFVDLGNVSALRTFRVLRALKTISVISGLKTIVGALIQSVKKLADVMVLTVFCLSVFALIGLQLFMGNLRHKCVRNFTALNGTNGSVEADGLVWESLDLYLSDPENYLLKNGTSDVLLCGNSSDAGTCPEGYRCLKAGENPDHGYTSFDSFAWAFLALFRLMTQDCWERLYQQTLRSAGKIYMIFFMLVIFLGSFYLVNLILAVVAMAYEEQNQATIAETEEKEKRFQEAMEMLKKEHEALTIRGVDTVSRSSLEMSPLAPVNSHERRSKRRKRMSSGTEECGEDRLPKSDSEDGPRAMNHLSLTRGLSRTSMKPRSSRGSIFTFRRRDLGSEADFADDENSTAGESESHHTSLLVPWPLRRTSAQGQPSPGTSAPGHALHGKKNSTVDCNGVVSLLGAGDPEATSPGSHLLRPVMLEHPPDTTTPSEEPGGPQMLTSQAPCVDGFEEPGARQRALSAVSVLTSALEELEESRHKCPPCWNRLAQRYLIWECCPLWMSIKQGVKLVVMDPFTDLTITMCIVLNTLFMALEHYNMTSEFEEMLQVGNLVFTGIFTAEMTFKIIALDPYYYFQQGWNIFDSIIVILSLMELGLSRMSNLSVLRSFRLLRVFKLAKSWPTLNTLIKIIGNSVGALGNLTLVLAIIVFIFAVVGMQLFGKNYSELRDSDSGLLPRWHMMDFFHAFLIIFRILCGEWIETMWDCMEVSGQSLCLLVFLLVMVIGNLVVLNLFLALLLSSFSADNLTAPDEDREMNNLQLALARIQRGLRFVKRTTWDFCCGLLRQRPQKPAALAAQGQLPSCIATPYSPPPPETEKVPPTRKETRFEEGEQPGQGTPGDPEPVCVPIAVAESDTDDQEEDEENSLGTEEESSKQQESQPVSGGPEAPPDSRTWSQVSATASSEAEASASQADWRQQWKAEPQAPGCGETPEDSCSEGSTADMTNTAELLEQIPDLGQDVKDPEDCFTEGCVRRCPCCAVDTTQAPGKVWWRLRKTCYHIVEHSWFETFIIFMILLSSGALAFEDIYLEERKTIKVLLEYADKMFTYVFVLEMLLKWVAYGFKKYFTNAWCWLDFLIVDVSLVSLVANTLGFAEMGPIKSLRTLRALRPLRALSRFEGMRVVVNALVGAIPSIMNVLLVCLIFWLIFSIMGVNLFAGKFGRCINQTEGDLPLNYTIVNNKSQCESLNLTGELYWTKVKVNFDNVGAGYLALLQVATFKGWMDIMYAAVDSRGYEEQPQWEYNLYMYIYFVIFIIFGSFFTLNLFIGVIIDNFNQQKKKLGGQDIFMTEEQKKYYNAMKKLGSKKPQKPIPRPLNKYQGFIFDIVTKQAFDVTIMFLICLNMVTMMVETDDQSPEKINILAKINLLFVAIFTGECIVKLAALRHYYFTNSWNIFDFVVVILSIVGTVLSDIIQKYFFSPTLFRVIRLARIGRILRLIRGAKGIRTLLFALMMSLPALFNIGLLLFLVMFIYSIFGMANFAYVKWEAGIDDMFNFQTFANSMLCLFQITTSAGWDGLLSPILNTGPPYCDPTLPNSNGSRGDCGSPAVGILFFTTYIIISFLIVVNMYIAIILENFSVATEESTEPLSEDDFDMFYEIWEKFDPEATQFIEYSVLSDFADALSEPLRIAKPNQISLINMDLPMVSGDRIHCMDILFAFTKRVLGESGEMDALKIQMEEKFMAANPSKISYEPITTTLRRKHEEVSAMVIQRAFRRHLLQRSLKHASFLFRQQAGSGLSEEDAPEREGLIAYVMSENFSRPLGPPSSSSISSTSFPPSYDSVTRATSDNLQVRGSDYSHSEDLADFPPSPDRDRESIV
Chain of Cytochrome P450 2C9 (P11712 whole entry, the tested form may be a part): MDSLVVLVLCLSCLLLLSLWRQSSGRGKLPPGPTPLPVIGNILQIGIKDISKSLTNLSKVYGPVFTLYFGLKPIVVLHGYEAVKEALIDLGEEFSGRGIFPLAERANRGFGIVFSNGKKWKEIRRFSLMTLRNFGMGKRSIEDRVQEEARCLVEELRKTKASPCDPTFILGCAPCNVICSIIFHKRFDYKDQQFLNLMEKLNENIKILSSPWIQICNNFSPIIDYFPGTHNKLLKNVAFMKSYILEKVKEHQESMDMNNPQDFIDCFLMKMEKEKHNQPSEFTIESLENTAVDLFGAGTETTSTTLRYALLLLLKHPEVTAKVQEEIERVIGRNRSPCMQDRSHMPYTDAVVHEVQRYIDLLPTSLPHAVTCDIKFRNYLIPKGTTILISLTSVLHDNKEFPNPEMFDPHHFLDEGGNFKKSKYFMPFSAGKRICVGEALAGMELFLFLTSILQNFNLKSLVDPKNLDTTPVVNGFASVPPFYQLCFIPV

For orientation: IC50 means the concentration needed to halve the response being measured. Low values mean greater potency in that assay, high ones weaker potency in that assay. As usually defined, the bioavailability is the share of a dose that reaches the circulation, judged against a reference dose that is usually intravenous. One may read the Ki as the equilibrium dissociation constant of an inhibitor or competing ligand from its target. For `O=C(NC[C@@H](Cc1ccccc1)N1CCC(O)(C(F)(F)F)CC1)C1(c2ccc(Cl)cc2)CCCC1`, the IC50 in data set [1] is 0.7 nM; in [2] it was not below 3000 nM; in data set [6] it was 1580 nM; in [7], 11400 nM; in data set [8], 20 nM; in data set [11], 3 nM. For the same compound, the 50% inhibitory concentration (IC50) was more than 3000 nM in [14] and 2300 nM in data set [16]. The Vd in [3] amounted to 3.99 L/kg. The compound also returned a Stability in data set [4] of 30 µL/min/mg. Moreover, in data set [5], the half-life was more than 6 h. In [9], the solubility thermodynamic was found to be 0.6 µg/mL (≈ 1.18 µM). The same compound came in with an INH in data set [10] of more than 3000 nM. For the same compound, in [12], the bioavailability came to 5%. For the same compound, in data set [13], the concentration at 24 h turned out to be 640000 ng/g. The same compound registered a Ki in [15] of 25700 nM.
